Drawing on US20170275298A1, “INHIBITORS OF THE RENAL OUTER MEDULLARY POTASSIUM CHANNEL” (Merck Sharp & Dohme Corp., priority 2014, published 2017), this text covers IC50 for 21 compounds.

The term IC50 denotes the concentration needed to halve the response being measured.

The target in this test is T1, hROMK (hKir1.1) (Homo sapiens, UniProt P48048).
T1 construct: expressed in transfected cells
T1 sequence (P48048 1-391): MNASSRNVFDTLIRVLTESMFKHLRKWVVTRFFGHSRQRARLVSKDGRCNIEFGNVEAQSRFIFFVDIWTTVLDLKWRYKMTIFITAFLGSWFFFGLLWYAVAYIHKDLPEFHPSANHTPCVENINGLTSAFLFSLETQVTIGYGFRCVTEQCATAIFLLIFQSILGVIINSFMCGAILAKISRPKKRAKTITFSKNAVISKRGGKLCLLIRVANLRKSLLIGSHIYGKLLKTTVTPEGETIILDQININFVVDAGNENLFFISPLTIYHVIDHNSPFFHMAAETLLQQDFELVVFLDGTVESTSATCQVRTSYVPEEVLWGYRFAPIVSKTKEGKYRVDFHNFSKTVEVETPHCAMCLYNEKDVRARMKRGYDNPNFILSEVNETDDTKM
Briefly: Thallium Flux Assay (ROMK channel functional thallium flux assay). It counts as cell-based. To be noted: HEK293 cells stably expressing hROMK (hKir1.1); FluxOR thallium flux, FLIPR-Tetra, 30 min compound incubation; read-out: ROMK TI IC50. As for the experimental part:
The following Thallium Flux Assay was performed on each of the final product compounds in the Examples.
HEK293 cells stably expressing hROMK (hKir1.1) were grown at 37° C. in a 10% CO2 humidified incubator in complete growth media: Dulbecco's Modified Eagle Medium supplemented with non-essential amino acids, Penicillin/Streptomycin/Glutamine, G418 and FBS. At >80% confluency, the media was aspirated from the flask and rinsed with 10 mL calcium/magnesium-free PBS. […] To dislodge the cell, the side of the flask was gently banged with one's hand. The cells completely titrated and then the cells were transferred to 25 mL complete media, centrifuged at 1,500 rpm for 6 min followed by resuspension in complete growth media and determine cell concentration. […] Under ideal growth conditions and appropriate tissue culture practices, this cell line is stable for 40-45 passages.
• FluxOR™ Reagent (Component A) • FluxOR™ Assay Buffer (Component B)—10× Concentrate • PowerLoad™ Concentrate (Component C)—100× Concentrate • Probenecid (Component D)—Lyophilized sample is kept at −20° C. Water soluble, 100× after solubilization in 1 mL water. […] Store at 4° C. • Thallium sulfate (Tl2SO4) Concentrate (Component G)—50 mM in water. Store at 4° C. • DMSO (dimethyl sulfoxide, Component H)—1 mL (100%)
Can be stored at room temperature • Stimulant Buffer (prepared at 5× final concentration in 1×FluxOR™ Chloride-Free Buffer): 7.5 mM thallium sulfate and 0.75 mM potassium sulfate (to give a final assay concentration of 3 mM Thallium/0.3 mM potassium). Store at 4° C. when not in use. If kept sterile, this solution is good for months.
The ROMK channel functional thallium flux assay was performed in 384 wells, using the FLIPR-Tetra instrument. HEK-hKir1.1 cells were seeded in Poly-D-Lysine microplates and kept in a 37° C.-10% CO2 incubator overnight. On the day of the experiment, the growth media was replaced with the FluxOR™ reagent loading buffer and incubated, protected from light, at ambient temperature (23-25° C.) for 90 min. The loading buffer was replaced with assay buffer±test compound followed by 30 min incubation at ambient temperature, where the thallium/potassium stimulant was added to the microplate.
1. Seed HEK-hKir1.1 cells (50 μl at 20,000 cells/well) in 384-well PDL coated Microplates 2. Allow cells to adhere overnight in humidified 37° C./10% CO2 incubator 3. Completely remove cell growth media from microplate and replace with 25 μl loading buffer 4. Incubate Microplate at room temperature, protected form light, for 90 min 5. Remove loading buffer and replace with 25 μl 1× Assay Buffer±test compound. 6. Incubate microplate at room temperature, protected from light, for 30 min 7. […] Excitation=400 nm, Emission=460 & 580 nm. Collect data for ˜10 min.
The fluorescence intensity of wells containing 3 μM of a standard control ROMK inhibitor of the present invention was used to define the ROMK-sensitive component of thallium flux. Fluorescence in the presence of test compounds was normalized to control values to provide % fluorescence change.
As for `Cn1nc(N2CCC3(CCN(CCc4ccc(-n5cnnn5)nc4)CC3)C2=O)ccc1=O` [Example 22, 8-(2-(6-(1H-tetrazol-1-yl)pyridin-3-yl)ethyl)-2-(1-methyl-6-oxo-1,6-dihydropyridazin-3-yl)-2,8-diazaspiro[4.5]decan-1-one], the 50% inhibitory concentration (IC50) amounted to 420 nM.
Under `COc1cc(N2CCOC3(CCN(C[C@H](O)c4ccc5c(c4C)COC5=O)CC3)C2=O)ccn1` [Example 23, (R)-9-(2-hydroxy-2-(4-methyl-1-oxo-1,3-dihydroisobenzofuran-5-yl)ethyl)-4-(2-methoxypyridin-4-yl)-1-oxa-4,9-diazaspiro[5.5]undecan-5-one] stands 407 nM; under `COc1nccc(N2CCOC3(CCN(C[C@H](O)c4ccc5c(c4C)COC5=O)CC3)C2=O)n1` [Example 24, (R)-9-(2-hydroxy-2-(4-methyl-1-oxo-1,3-dihydroisobenzofuran-5-yl)ethyl)-4-(2-methoxypyrimidin-4-yl)-1-oxa-4,9-diazaspiro[5.5]undecan-5-one], 30.2 nM.
In the case of `Cc1c([C@@H](O)CN2CCC3(CC2)CCN(c2cnccn2)C3=O)ccc2c1COC2=O` [Example 25, (R)-8-(2-hydroxy-2-(4-methyl-1-oxo-1,3-dihydroisobenzofuran-5-yl)ethyl)-2-(pyrazin-2-yl)-2,8-diazaspiro[4.5]decan-1-one], the IC50 stood at 437 nM.
With `Cc1c([C@@H](O)CN2CCC3(CC2)OCCN(c2ccncc2)C3=O)ccc2c1COC2=O` [Example 26, (R)-9-(2-hydroxy-2-(4-methyl-1-oxo-1,3-dihydroisobenzofuran-5-yl)ethyl)-4-(pyridin-4-yl)-1-oxa-4,9-diazaspiro[5.5]undecan-5-one] the figure was 238 nM; with `COc1nsc(N2CCOC3(CCN(C[C@H](O)c4ccc5c(c4C)COC5=O)CC3)C2=O)n1` [Example 27, (R)-9-(2-hydroxy-2-(4-methyl-1-oxo-1,3-dihydroisobenzofuran-5-yl)ethyl)-4-(3-methoxy-1,2,4-thiadiazol-5-yl)-1-oxa-4,9-diazaspiro[5.5]undecan-5-one], 25 nM.
Turning to `Cc1nsc(N2CCOC3(CCN(C[C@H](O)c4ccc5c(c4C)COC5=O)CC3)C2=O)n1` [Example 28, (R)-9-(2-hydroxy-2-(4-methyl-1-oxo-1,3-dihydroisobenzofuran-5-yl)ethyl)-4-(3-methyl-1,2,4-thiadiazol-5-yl)-1-oxa-4,9-diazaspiro[5.5]undecan-5-one], the IC50 was 123 nM.
With `Cc1c([C@@H](O)CN2CCC3(CCCN(c4ccc(=O)n(C)n4)C3=O)CC2)ccc2c1COC2=O` [Example 29, (R)-9-(2-hydroxy-2-(4-methyl-1-oxo-1,3-dihydroisobenzofuran-5-yl)ethyl)-2-(1-methyl-6-oxo-1,6-dihydropyridazin-3-yl)-2,9-diazaspiro[5.5]undecan-1-one] the figure was 145 nM; with `Cc1c([C@@H](O)CN2CCC3(CC2)CC(=O)N(c2ccc(=O)n(C)n2)C3)ccc2c1COC2=O` [Example 30, (R)-8-(2-hydroxy-2-(4-methyl-1-oxo-1,3-dihydroisobenzofuran-5-yl)ethyl)-2-(1-methyl-6-oxo-1,6-dihydropyridazin-3-yl)-2,8-diazaspiro[4.5]decan-3-one], 95.1 nM; with `COc1nccc(N2CC3(CCN(C[C@H](O)c4ccc5c(c4C)COC5=O)CC3)CC2=O)n1` [Example 31, (R)-8-(2-hydroxy-2-(4-methyl-1-oxo-1,3-dihydroisobenzofuran-5-yl)ethyl)-2-(2-methoxypyrimidin-4-yl)-2,8-diazaspiro[4.5]decan-3-one], 153 nM.
For the compound `Cc1c([C@@H](O)CN2CCC3(CC2)CCN(c2ccc(OC(F)(F)F)cc2)C3=O)ccc2c1COC2=O` [Example 32, (R)-8-(2-hydroxy-2-(4-methyl-1-oxo-1,3-dihydroisobenzofuran-5-yl)ethyl)-2-(4-(trifluoromethoxy)phenyl)-2,8-diazaspiro[4.5]decan-1-one], the IC50 was found to be 465 nM.
On to `Cc1c([C@@H](O)CN2CCC3(CC2)CCN(c2ccc(C(F)F)nc2)C3=O)ccc2c1COC2=O` [Example 33, (R)-2-(6-(difluoromethyl)pyridin-3-yl)-8-(2-hydroxy-2-(4-methyl-1-oxo-1,3-dihydroisobenzofuran-5-yl)ethyl)-2,8-diazaspiro[4.5]decan-1-one], for which the half-inhibitory concentration (IC50) is 63.1 nM.
In the case of `Cc1c([C@@H](O)CN2CCC3(CC2)CCN(c2cc(-c4ccccc4)no2)C3=O)ccc2c1COC2=O` [Example 34, (R)-8-(2-hydroxy-2-(4-methyl-1-oxo-1,3-dihydroisobenzofuran-5-yl)ethyl)-2-(3-phenylisoxazol-5-yl)-2,8-diazaspiro[4.5]decan-1-one], the 50% inhibitory concentration (IC50) turned out to be 505 nM.
As for `Cc1c([C@@H](O)CN2CCC3(CC2)CCN(c2cccnc2)C3=O)ccc2c1COC2=O` [Example 35, (R)-8-(2-hydroxy-2-(4-methyl-1-oxo-1,3-dihydroisobenzofuran-5-yl)ethyl)-2-(pyridin-3-yl)-2,8-diazaspiro[4.5]decan-1-one], the 50% inhibitory concentration (IC50) amounted to 379 nM.
Turning to `COc1ccc(N2CCC3(CCN(C[C@H](O)c4ccc5c(c4C)COC5=O)CC3)C2=O)nn1` [Example 36, (R)-8-(2-hydroxy-2-(4-methyl-1-oxo-1,3-dihydroisobenzofuran-5-yl)ethyl)-2-(6-methoxypyridazin-3-yl)-2,8-diazaspiro[4.5]decan-1-one], the IC50 came to 393 nM.
`Cc1c([C@@H](O)CN2CCC3(CC2)CCN(c2cncnc2)C3=O)ccc2c1COC2=O` [Example 37, (R)-8-(2-hydroxy-2-(4-methyl-1-oxo-1,3-dihydroisobenzofuran-5-yl)ethyl)-2-(pyrimidin-5-yl)-2,8-diazaspiro[4.5]decan-1-one]: the half-maximal inhibitory concentration (IC50) stood at 676 nM.
With `Cc1c([C@@H](O)CN2CCC3(CC2)CCN(c2cncc(F)c2)C3=O)ccc2c1COC2=O` [Example 38, (R)-2-(5-fluoropyridin-3-yl)-8-(2-hydroxy-2-(4-methyl-1-oxo-1,3-dihydroisobenzofuran-5-yl)ethyl)-2,8-diazaspiro[4.5]decan-1-one] the figure was 82.5 nM; with `[2H]C([2H])([2H])Oc1nccc(N2CCC3(CCN(C[C@H](O)c4ccc5c(c4C)COC5=O)CC3)C2=O)n1` [Example 39, (R)-8-(2-hydroxy-2-(4-methyl-1-oxo-1,3-dihydroisobenzofuran-5-yl)ethyl)-2-(2-methoxypyrimidin-4-yl)-2,8-diazaspiro[4.5]decan-1-one (methoxy-d3)], 38.8 nM.
For `COc1ncc(N2CCC3(CCN(C[C@H](O)c4ccc5c(c4C)COC5=O)CC3)C2=O)cn1` [Example 40, (R)-8-(2-hydroxy-2-(4-methyl-1-oxo-1,3-dihydroisobenzofuran-5-yl)ethyl)-2-(2-methoxypyrimidin-5-yl)-2,8-diazaspiro[4.5]decan-1-one], the IC50 was found to be 142 nM.
For `Cc1nccc(N2CCC3(CCN(C[C@H](O)c4ccc5c(c4C)COC5=O)CC3)C2=O)n1` [Example 41, (R)-8-(2-hydroxy-2-(4-methyl-1-oxo-1,3-dihydroisobenzofuran-5-yl)ethyl)-2-(2-methylpyrimidin-4-yl)-2,8-diazaspiro[4.5]decan-1-one], the half-maximal inhibitory concentration (IC50) amounted to 193 nM.
Under `COc1cc(N2CCC3(CCN(C[C@H](O)c4ccc5c(c4C)COC5=O)CC3)C2=O)nc(OC)n1` [Example 42, (R)-2-(2,6-dimethoxypyrimidin-4-yl)-8-(2-hydroxy-2-(4-methyl-1-oxo-1,3-dihydroisobenzofuran-5-yl)ethyl)-2,8-diazaspiro[4.5]decan-1-one] stands 842 nM.
